As usually defined, the Ki is a dissociation constant, usually derived from enzyme kinetics or from competition with a known ligand. Broadly, the IC50 is the concentration that inhibits the measured activity by half.

In patent publication EP4631938A1, “NITROGEN-CONTAINING HETEROCYCLE WITH SEROTONIN RECEPTOR-BINDING ACTIVITY AND CARBOCYCLIC DERIVATIVE” (Shionogi & Co., Ltd, priority 2022, dated 2024) one finds Ki and IC50 data, which are given here for four compounds.

The target in assay [1] is T1, human recombinant 5-HT2C receptor (Homo sapiens, UniProt P28335).
T1 construct: expressed in transfected cells; host or cells: Jump-In HEK cells (membrane preparation)
T1 sequence (P28335 33-458): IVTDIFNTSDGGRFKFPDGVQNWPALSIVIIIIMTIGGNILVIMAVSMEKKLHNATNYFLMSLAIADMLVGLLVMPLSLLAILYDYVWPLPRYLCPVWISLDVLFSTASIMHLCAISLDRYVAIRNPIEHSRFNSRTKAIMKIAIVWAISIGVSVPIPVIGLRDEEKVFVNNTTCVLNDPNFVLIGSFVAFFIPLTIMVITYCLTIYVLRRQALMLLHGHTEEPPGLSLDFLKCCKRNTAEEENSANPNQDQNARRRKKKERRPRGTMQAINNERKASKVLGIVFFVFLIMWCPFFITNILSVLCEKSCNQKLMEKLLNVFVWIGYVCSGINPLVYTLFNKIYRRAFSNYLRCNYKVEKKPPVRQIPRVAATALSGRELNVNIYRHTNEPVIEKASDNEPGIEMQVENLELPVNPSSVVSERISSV
Put plainly: Test Example 2-2: 5-HT2C receptor binding inhibition test ([3H]-Mesulergine; non-specific ligand Ketanserin). The note with it: non-specific binding with 500 µmol/L Ketanserin, 37°C, 2 hours. The procedure, abridged:
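Membranes expressing the receptor were incubated with compound and [3H]-Mesulergine for 2 h at 37 °C, then filtered and counted by scintillation. Non-specific binding was defined with 500 µmol/L Ketanserin. Percent inhibition versus vehicle gave dose-response curves, from which Ki was derived using a Kd from Scatchard saturation analysis.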

For assay [2], the target named is T2, human ether-a-go-go related gene (hERG) channel (Homo sapiens, UniProt Q12809).
T2 construct: expressed in transfected cells; host or cells: CHO cells
T2 sequence (Q12809 whole entry): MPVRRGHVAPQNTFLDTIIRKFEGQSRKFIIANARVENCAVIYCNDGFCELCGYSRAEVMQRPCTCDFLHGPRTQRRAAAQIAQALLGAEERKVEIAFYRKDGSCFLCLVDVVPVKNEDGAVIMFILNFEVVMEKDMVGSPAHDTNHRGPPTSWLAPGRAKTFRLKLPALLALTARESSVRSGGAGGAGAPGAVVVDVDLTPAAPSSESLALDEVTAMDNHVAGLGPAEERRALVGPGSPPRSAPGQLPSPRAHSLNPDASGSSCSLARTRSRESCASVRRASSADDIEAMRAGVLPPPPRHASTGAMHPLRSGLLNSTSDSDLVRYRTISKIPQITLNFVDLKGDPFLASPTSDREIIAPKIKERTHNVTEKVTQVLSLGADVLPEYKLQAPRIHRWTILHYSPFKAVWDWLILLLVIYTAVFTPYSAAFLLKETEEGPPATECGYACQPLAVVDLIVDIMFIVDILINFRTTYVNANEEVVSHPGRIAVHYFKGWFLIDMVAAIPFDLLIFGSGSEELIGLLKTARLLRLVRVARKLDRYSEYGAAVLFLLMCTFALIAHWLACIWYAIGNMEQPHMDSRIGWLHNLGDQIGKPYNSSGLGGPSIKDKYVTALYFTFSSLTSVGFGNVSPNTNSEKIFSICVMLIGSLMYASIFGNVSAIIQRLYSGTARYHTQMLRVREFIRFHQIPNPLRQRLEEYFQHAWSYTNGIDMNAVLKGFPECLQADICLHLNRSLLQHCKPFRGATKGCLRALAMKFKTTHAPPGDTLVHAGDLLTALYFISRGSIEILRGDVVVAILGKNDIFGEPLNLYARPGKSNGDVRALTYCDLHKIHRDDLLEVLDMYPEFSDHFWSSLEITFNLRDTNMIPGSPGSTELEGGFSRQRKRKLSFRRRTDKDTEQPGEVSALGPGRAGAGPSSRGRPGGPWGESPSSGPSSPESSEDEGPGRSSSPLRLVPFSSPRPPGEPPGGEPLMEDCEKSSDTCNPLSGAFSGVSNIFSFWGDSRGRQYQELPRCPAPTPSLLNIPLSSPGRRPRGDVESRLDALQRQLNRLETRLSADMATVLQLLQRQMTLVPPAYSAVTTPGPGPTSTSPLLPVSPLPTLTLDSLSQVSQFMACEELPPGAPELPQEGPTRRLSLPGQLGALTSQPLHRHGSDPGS
Put plainly: Test Example 3-2: hERG test (FluxORII thallium flux, FLIPR, 4000 cells/well). In kind it is cell-based. As to conditions: CHO cells expressing hERG channel, compound reacted for 10 minutes, 100% inhibition = E-4031 10.3 µmol/L. The method, then: For the purpose of evaluating risk of an electrocardiogram QT interval prolongation of the compound of the present invention, effects of the compound are studied by evaluating the activity of potassium channel using CHO cells expressing human ether-a-go-go related gene (hERG) channel.
Evaluation is performed using a FluxORII Green Potassium Ion Channel Assay kit (Invitrogen: Molecular Probes).
Cells (4000 cells/well/40 µL) are seeded in a 384 assay plate, and are incubated overnight (37°C, 5% CO2). After replacing the medium with a Wash buffer (lxHBSS, 20 mM HEPES) with a microplate washer, a fluorescent indicator is added to the medium and allowed to incubate (37°C, 5% CO2) for 1 hour for incorporation of the fluorescent indicator into cells.
A cell plate is placed on a cell-based kinetic assay system FLIPR (Molecular Devices, LLC.), and the compound is added to the cells so as to have a desired concentration and reacted for 10 minutes. When a mixed solution of potassium and thallium as a stimulator is added thereto, the potassium channel is opened, and thallium that flowed into the cells binds to the fluorescent indicator, so that the intracellular fluorescence signal increases, and the potassium channel current is detected as a fluorescence signal. […] Then, the inhibition rate is calculated from the signal intensity at each concentration. IC50 is calculated from the inhibition rate at each concentration.
(In general: The hERG channel carries a current that helps repolarise heart muscle cells.)

As for `Cn1ncc(Br)c1-c1cc(Nc2ncc(C(F)(F)F)cc2F)ccc1OCCO` [Compound I-006], in assay [1], the Ki was determined as 0.271 nM. Also, the IC50 in assay [2] is > 52000 nM.

Take `Cc1cnn(C)c1-c1cc(Nc2ncc(C(F)(F)F)cc2F)ccc1OCCO` [Compound I-008]: in assay [1], the Ki turned out to be 0.822 nM.

Take `Cn1ncc(F)c1-c1cc(Nc2ncc(C(F)(F)F)cc2F)cnc1OCCO` [Compound I-127]: the Ki in assay [1] was 3.47 nM. The IC50 in assay [2] is > 52000 nM.

On to `COCc1nc(C)c(-c2cc(Nc3ncc(OC(F)(F)F)cc3Cl)ncc2OCCO)c(C)n1` [Compound I-200], for which the IC50 in assay [2] was > 52000 nM.
